Measurements from article PMC12400753 (Respiratory Research, 2025).
pIC50: −log10 of the molar value. One block for each molecule: values may come before it.

What was measured:
[1] = system: bleomycin-induced lung fibrosis; experiment: Systemic (subcutaneous) bleomycin mouse model; format: in vivo; conditions: 30 mg/kg oral twice a day, therapeutic
Procedure: Mice were injected subcutaneously with bleomycin (0.1 units/day), on a schedule of 5 days on/2 days off to induce fibrosis. […] Dosing was maintained until study end, at which point lung tissues were collected. The right lobe was snap frozen and processed for collagen analysis for hydroxyproline; the left lobe was sectioned and stained with Masson’s trichrome stain for histological assessment of tissue collagen. This study was conducted by Inotiv (West Lafayette, IN). Forty-four female 9 week old C57Bl/6 mice (Jackson Labs) were provided standard chow (Envigo, Cat #: 8940), housed under standard conditions, and allowed to acclimate for > 3 days prior to enrollment. Prior to start, mice were weighed and placed into balanced enrollment groups. Four days prior to start, mice were anesthetized, dorsal fur shaved and removed with depilatory agent, and two circles (~ 1.5 cm diameter) heat-branded on their dorsal abdomen. Fur was removed as needed for the balance of the study to ensure consistent location of s.c. injections. Beginning on day 0 and through day 26, mice were anesthetized with isoflurane and administered 0.9% NaCl or bleomycin injections (100 µl/injection, s.c.) into each of the circles (2 injections/mouse/d) on a 5 day on/2 day off paradigm. Mice were administered 0.9% NaCl (vehicle) or bleomycin (0.1 U) with bleomycin doses split evenly between the two circles (i.e., 0.05 U/circle). […] Weight measures and health observations were made daily. On day 27, mice were dosed to enable trough blood/plasma collection on day 28, which was collected via retro-orbital approach under isoflurane anesthesia. Following blood collection, mice were administered vehicle or compound on a timetable as appropriate to enable a peak blood collection 2 h postdose. At the time of sacrifice, mice were anesthetized with pentobarbital, a tracheotomy performed and interfaced with a positive pressure ventilator providing 100% O2. The mouse’s chest was then opened, and a needle interfaced with an infusion pump introduced to the right ventricle. […] The lungs were then harvested, immediately immersed in ice-cold 0.9% NaCl, gross dissected and subjected to morphological analyses. Tissue samples will be processed for biochemical and/or histological analyses as described below. Masson’s Trichrome Blue stained slides were subjected to histological analyses using color segmentation analysis for lung fibrosis. Frozen lung samples underwent hydroxyproline analysis as described below. Lung tissue processing – following exsanguination and flushing of the pulmonary circulation to clear blood, the lungs were removed, placed in ice-cold 0.9% NaCl and processed on wet ice. Extraneous tissue was removed and whole lung weight recorded. […]

LPAR1 [2] = target: T1, LPAR1 (Homo sapiens, UniProt Q92633); experiment: LPAR1 calcium mobilization (reference compounds); format: cell-based
T1 sequence (Q92633 whole entry): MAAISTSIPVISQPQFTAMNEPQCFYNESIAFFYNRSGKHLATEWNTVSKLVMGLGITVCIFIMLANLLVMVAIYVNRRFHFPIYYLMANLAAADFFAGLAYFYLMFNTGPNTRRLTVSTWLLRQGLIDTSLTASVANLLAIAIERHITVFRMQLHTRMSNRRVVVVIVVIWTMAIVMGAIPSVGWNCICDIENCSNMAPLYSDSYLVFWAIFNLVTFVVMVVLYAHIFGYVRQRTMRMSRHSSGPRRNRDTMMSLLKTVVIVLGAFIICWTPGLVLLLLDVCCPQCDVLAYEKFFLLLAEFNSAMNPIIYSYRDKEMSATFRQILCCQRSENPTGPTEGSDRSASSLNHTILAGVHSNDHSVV
Procedure: B. C. LPAR1 Averaged Data (n=4) 200 […] 125 Nonspecific Binding 2nM 600 Specific Binding 150 1nM 100 75 400 100 50 200 25 50 0 0 -25 0 2 4 6 8 10 120 -10 -9 -8 -7 -6 -5[3H]-PIPE-497 (nM) 0 25 50 75 100 125 log[PIPE-497], M Time Figure S3. PIPE- 497 is a potent L P AR 1 receptor antagonist with properties suitable as an in vivo radioligand. A. L P AR 1 calcium mobilization data showing that PIPE-497 (non-tritiated) is a p ot ent […] B. Saturation binding curves of 3H-PIPE-497 to huma n LPAR1 membranes (n=2, error bars are SEM). C. Binding kinetics of 3H-PIPE-497 in recombinant membranes. […] with 10 μM PIPE- 497 th en add ed to membranes at different time points resulting in a residence time of 16.2 minutes (n=4, error bars are SEM). […] At 10 mg/kg, th e free p las ma exposure of BM S -986278 exceeds its measured IC 5 0 up until 4 h p ost d ose. […] IC50 LPAR1)

[3] = system: primary human lung fibroblasts; experiment: LPA-induced COL1A1 expression (immunocytochemistry); format: cell-based; conditions: Homo sapiens, Fibroblast; 1 µM LPA 8 h; compound overnight; read-out: IC50 inhibition of COL1A1 expression
Procedure: COL1A1 assay: Primary human lung fibroblasts were plated in a 96-well plate and allowed to adhere. […] The next day, cells were treated with 1 µM LPA and incubated for 8 h. After incubation in LPA, cells were immunostained for COL1A1. Cells were fixed in formalin for 10 min, washed 3 x with PBS, incubated in collagen 1A1 antibody (1:250 in blocking buffer, 0.1% Triton X-100 in PBS, 2 h), and washed 3 x with PBS. Secondary antibody solution (1:500) and Hoechst (1:2000) were added for 1 h, washed 3 x in PBS then imaged on a Nikon A1R confocal microscope at 10x magnification except human lung fibroblasts which were imaged at 4x. Collagen area was quantified with ImageJ and normalized to Hoechst per image.

[4] = system: human precision cut lung slices from donors with pulmonary fibrosis; experiment: Fibrotic marker mRNA (qPCR) in cryopreserved PCLS from donors with pulmonary fibrosis; format: cell-based; conditions: 6 days
From the text: Slices were snap frozen and processed for transcript analysis by quantitative PCR. […] Concurrently, we evaluated two well-established, clinical stage antifibrotic mechanisms in this setting: an αvβ1/6 inhibitor (bexotegrast, PLN-74809) and a PDE4B inhibitor (nerandomilast, BI 1015550).
Precision cut lung slices were obtained from Anabios (San Diego, CA) and collected in accordance with their ethics policy (https://anabios.com/ethics-statement/). Donor demographics are available in Additional File 1. Slices were thawed as per vendor instructions. Briefly, PCLS were thawed at 37 °C then transferred to media consisting of DMEM/F12, Antibiotic-Antimytotic, and Penicillin-Streptomycin. PCLS were gently rinsed then transferred to a larger dish. A small tissue sample was excised with a scalpel for immunohistochemistry and qPCR characterization. […] Final concentration of DMSO was 0.1%. Media and compound were replaced every two days for a total of 6 days. At the end of the experiment, slices were collected and snap frozen. Quantitative PCR: RNA was extracted using RNEasy columns. RNA was reverse transcribed using qScript XLT per manufacturer’s instructions. Genes of interest were assessed by qPCR using Perfecta SYBR Green on a StepOne Plus Thermocycler (ABI). Parameters were as follows: 95 °C 30 s, then 45 cycles of 95 °C for 5 s and 60 °C for 30 s.

[5] = system: fresh human PCLS from donors with pulmonary fibrosis; experiment: Secreted biomarkers in fresh PCLS from pulmonary fibrosis donors; format: cell-based; conditions: nintedanib 300 nM; 48 h
From the text: Translationally, biomarker-based strategies for assessing aberrant extracellular matrix deposition and remodeling in the context of disease pathogenesis and compound efficacy have become increasingly relevant. For the PCLS gene expression studies, slices were preserved through slow cryogenic freezing of tissue. While this affords experimental flexibility, some physiological relevance is lost over the course of cryostorage and recovery (e.g., immune cell loss). To circumvent this, fresh PCLS from two donors with pulmonary fibrosis were generated and immediately placed into culture. For this experiment, well-established, secreted fibrotic markers that encompass fibrogenesis and tissue remodeling were measured: C3M (a marker of collagen III degradation and an indicant of ECM remodeling and tissue turnover), Pro-C3 (a neo-epitope fragment of collagen III and a marker of active fibrogenesis and fibrosis progression), and Pro-C6 (a neoepitope fragment of COLVIA3 and a marker of remodeling and wound healing). […] Media was then removed and analyzed for biomarker concentration.
PCLS cultures for secreted biomarker analysis were performed at Fraunhofer ITEM (Hanover, Germany) using tissue from pathologist qualified, pulmonary fibrosis patients. Tissue from individual donors and 2 lung regions were collected in accordance with policies approved by the Hanover Medical School ethics committee. Only fibrotic tissue was used for experiments. Region 1 consisted of subpleural tissue and Region 2 of central tissue. For each, lung lobes were filled with low-melting agarose then sectioned at 300 μm on a Krumdiek tissue slicer as described in Hesse et al., 2022. Slices were incubated in DMEM containing penicillin and streptomycin, two slices per region were used. […] Supernatant was collected and shipped to Nordic Bioscience (Herlev, Denmark) for C3M, Pro-C6 and Pro-C3 analysis. Donor information can be found in Additional File 1.

human LPAR4 = target: T2, human LPAR4 (Homo sapiens, UniProt Q99677); experiment: LPA-induced calcium mobilization in transiently transfected HEK293T cells; format: cell-based; conditions: empirically determined, used for stimulation
T2 construct: host or cells: HEK293T
T2 sequence (Q99677 whole entry): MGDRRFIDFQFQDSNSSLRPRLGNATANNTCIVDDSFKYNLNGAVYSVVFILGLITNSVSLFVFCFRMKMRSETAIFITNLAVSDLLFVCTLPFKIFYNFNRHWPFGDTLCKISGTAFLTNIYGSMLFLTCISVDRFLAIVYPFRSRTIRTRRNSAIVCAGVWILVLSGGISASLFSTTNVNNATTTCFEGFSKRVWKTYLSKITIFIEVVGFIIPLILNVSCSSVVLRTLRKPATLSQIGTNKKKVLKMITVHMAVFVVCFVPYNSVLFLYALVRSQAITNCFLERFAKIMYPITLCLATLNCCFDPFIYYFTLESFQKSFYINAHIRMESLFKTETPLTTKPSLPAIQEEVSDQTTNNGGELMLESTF
Procedure: (§1) We had previously assessed selectivity against LPAR2 and 3 [11]. […] Human LPAR1-6 plasmids were each transiently transfected into HEK293T cells and the EC80 (effective concentration producing 80% maximal effect) for LPA activation empirically determined. Selectivity was then tested in a concentration response paradigm using a 3 h preincubation followed by LPA-induced calcium mobilization.
(§2) Plasmids containing human LPAR1-6 were obtained from Origene (Rockville, MD) and maxiprepped at Eton Biosciences (San Diego, CA). Transfection mix was prepared by adding Fugene 6 transfection mix to serum free media and 0.1 µg plasmid. After a 20 m incubation, HEK293T cells (ATCC, Manassas VA) were lifted with Accutase and added to the Fugene mix at a final concentration of 0.5 × 10^4 cells/well. Cells were then plated on black clear bottom 96-well plates and incubated overnight in a 37 °C, 5% CO2 incubator. […] During the last hour of incubation, media was removed and replaced with Fluo-4 NW calcium assay dye prepared as per manufacturer’s recommendations in assay buffer. Agonist plates containing LPA were prepared for individual receptor subytpes using their respective EC80. Calcium mobilization was measured as per manufacturer’s directions on a Flexstation 3 (Molecular Devices, San Jose, CA).

human LPAR6 = target: T3, human LPAR6 (Homo sapiens, UniProt P43657); experiment: as above; format: cell-based; conditions: empirically determined, used for stimulation
T3 construct: host or cells: HEK293T
T3 sequence (P43657 1-344): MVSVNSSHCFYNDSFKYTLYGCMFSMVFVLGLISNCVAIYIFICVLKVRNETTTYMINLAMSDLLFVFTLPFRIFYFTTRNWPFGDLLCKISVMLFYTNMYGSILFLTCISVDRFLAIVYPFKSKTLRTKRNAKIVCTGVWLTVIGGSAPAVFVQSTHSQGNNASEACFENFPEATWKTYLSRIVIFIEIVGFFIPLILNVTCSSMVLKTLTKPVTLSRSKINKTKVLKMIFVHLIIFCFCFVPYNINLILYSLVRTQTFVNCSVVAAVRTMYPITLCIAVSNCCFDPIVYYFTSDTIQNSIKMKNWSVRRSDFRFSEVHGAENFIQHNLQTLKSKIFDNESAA
Procedure: as §1, §2

human LPAR2 = target: T4, human LPAR2 (Homo sapiens, UniProt Q9HBW0); experiment: as above; format: cell-based; conditions: empirically determined, used for stimulation
T4 construct: host or cells: HEK293T
T4 sequence (Q9HBW0 whole entry): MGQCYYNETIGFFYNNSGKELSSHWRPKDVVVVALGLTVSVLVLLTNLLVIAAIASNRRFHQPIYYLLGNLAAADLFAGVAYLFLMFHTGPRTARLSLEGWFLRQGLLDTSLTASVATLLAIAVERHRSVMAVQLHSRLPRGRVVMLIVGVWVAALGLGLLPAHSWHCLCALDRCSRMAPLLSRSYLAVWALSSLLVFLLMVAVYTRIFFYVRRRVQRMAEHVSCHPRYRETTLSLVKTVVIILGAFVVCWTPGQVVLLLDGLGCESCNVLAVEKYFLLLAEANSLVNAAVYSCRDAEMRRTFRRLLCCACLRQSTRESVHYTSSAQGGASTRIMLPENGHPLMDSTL
Procedure: as §1, §2

human LPAR5 = target: T5, human LPAR5 (Homo sapiens, UniProt Q9H1C0); experiment: as above; format: cell-based; conditions: empirically determined, used for stimulation
T5 construct: host or cells: HEK293T
T5 sequence (Q9H1C0 whole entry): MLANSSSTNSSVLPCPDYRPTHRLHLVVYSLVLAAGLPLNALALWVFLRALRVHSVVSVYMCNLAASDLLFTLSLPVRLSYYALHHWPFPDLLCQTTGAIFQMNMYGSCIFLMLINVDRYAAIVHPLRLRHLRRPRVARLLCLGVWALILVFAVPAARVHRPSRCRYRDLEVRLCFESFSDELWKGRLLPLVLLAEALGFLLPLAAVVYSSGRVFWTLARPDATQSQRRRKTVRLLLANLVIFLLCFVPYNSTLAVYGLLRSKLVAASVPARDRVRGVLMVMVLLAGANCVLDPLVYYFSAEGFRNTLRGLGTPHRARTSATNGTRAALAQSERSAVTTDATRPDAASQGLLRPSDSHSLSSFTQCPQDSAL
Procedure: as §1, §2

human LPAR3 = target: T6, human LPAR3 (Homo sapiens, UniProt Q9UBY5); experiment: as above; format: cell-based; conditions: empirically determined, used for stimulation
T6 construct: host or cells: HEK293T
T6 sequence (Q9UBY5 1-353): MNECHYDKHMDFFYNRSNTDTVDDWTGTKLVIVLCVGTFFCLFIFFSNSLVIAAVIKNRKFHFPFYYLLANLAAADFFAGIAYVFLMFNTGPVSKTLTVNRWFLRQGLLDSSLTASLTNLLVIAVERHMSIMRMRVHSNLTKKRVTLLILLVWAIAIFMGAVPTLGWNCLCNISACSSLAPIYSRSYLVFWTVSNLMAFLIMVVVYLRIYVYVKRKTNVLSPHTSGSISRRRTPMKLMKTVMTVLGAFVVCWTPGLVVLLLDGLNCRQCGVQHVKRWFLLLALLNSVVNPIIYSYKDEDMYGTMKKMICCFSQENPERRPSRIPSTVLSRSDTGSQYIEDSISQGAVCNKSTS
Procedure: as §1, §2

LPAR1 [6] = target: T1, LPAR1; experiment: as above; format: cell-based; parameters: host or cells: HEK293T; conditions: empirically determined, used for stimulation
Procedure: as §1, §2

Molecule: Cc1noc(-c2ccc(-c3ccc(C4(C(=O)O)CC4)cc3)cc2)c1NC(=O)O[C@H](C)c1ccccc1 [BMS-986020, reference compound]
lung hydroxyproline compared to bleomycin/vehicle [1]: no reduction in hydroxyproline
reduction in tissue collagen fraction (TCF), trichrome ([1]; p = 0.2723): 62%

pIC50 (LPAR1 [2]): 7.09
Molecule: CCCN(C)C(=O)OCc1c(-c2ccc(O[C@H]3CCC[C@H](C(=O)O)C3)c(C)n2)nnn1C [BMS-986278, reference compound]
pIC50 [3]: 7.51

Molecule: COCCN(CCCCc1ccc2c(n1)NCCC2)CC[C@H](Nc1ncnc2ccccc12)C(=O)O [bexotegrast]
COL3A1 mRNA expression vs vehicle ([4]; 300 nM, P 0.1827 (not significant)): reduces
SERPINE1 mRNA expression vs vehicle ([4]; 300 nM, P 0.4056 (not significant)): reduces
LPAR1 mRNA expression vs vehicle ([4]; 300 nM, P 0.8283): unchanged
COL1A1 mRNA expression vs vehicle ([4]; 300 nM, P < 0.05): significantly less
TIMP-1 mRNA expression vs vehicle ([4]; 300 nM, P < 0.05): significantly lower

Molecule: [O-][S+]1CCc2nc(N3CCC(c4ncc(Cl)cn4)CC3)nc(NC3(CO)CCC3)c21 (stereo not shown) [nerandomilast]
COL3A1 mRNA expression vs vehicle ([4]; 10 µM, P 0.1621 (not significant)): reduces
TIMP1 mRNA expression vs vehicle ([4]; 10 µM, P 0.6976 (not significant)): reduces
SERPINE1 mRNA expression vs vehicle ([4]; 10 µM, P 0.8986 (not significant)): reduces
COL1A1 mRNA expression vs vehicle ([4]; 10 µM, P < 0.05): significantly less

Molecule: COC(=O)c1ccc2c(c1)NC(=O)/C2=C(\Nc1ccc(N(C)C(=O)CN2CCN(C)CC2)cc1)c1ccccc1 [nintedanib, reference compound]
secreted C3M [5]: significant reduction
secreted Pro-C3 [5]: did not show a significant decrease
secreted Pro-C6 [5]: reduced

LPA EC80 (human LPAR4): 10 µM
LPA EC80 (human LPAR6): 13 µM
LPA EC80 (human LPAR2): 5 µM
LPA EC80 (human LPAR5): 1 µM
LPA EC80 (human LPAR3): 10 µM
LPA EC80 (LPAR1 [6]): 5 µM
Molecule: lysophosphatidic acid [LPA, reference compound]
